Laboratory results as given in publication PMC6225228, “Design, Synthesis and Evaluation of N-pyrazinylbenzamides as Potential Antimycobacterial Agents” (Molecules : A Journal of Synthetic Chemistry and Natural …, 2018).
≈ marks a conversion by molar mass, not a printed value. Read-outs that look alike come from different tables or passages of the source.

What was measured:
Candida tropicalis 156 = experiment: Antifungal microdilution broth, CT; assay type: cell-based; conditions: read-out: MIC CT
[1] = test system: Aspergillus fumigatus 231; experiment: Antifungal microdilution broth, AF; assay type: cell-based; conditions: read-out: MIC AF
[2] = test system: Enterococcus sp. J 14365/08; experiment: Antibacterial microdilution broth, EF; assay type: cell-based; conditions: Enterococcus, read-out: MIC EF
Candida glabrata 20/I = experiment: Antifungal microdilution broth, CG; assay type: cell-based; conditions: Nakaseomyces glabratus, 20/I, read-out: MIC CG
Candida krusei E28 = experiment: Antifungal microdilution broth, CK; assay type: cell-based; conditions: Pichia kudriavzevii, read-out: MIC CK
[3] = test system: Staphylococcus epidermidis H 6966/08; experiment: Antibacterial microdilution broth, SE; assay type: cell-based; conditions: Staphylococcus epidermidis, read-out: MIC SE
[4] = test system: M. kansasii CNCTC My 235/80 (ATCC 12478); experiment: Antimycobacterial microdilution MABA, M. kansasii; assay type: cell-based, Mycobacterium kansasii; conditions: for MIC: Mycobacterium kansasii, ATCC12478, pH 6.6, read-out: M. kans. ATCC 12478 MIC, Middlebrook 7H9 with OADC, pH 6.6, MABA
[5] = test system: Staphylococcus aureus H 5996/08 methicillin resistant; experiment: microbe, parasite or virus in culture; assay type: cell-based; conditions: Staphylococcus aureus, MRSA, read-out: MIC MRSA
[6] = test system: M. avium ssp. avium CNCTC My 80/72 (ATCC 15769); experiment: Antimycobacterial microdilution MABA, M. avium; assay type: cell-based, Mycobacterium avium; conditions: for MIC: Mycobacterium avium, ATCC15769, pH 6.6, read-out: M. avium ATCC 15769 MIC; for M. avium ATCC 15769 MIC: Middlebrook 7H9 with OADC, pH 6.6, MABA
[7] = test system: Pseudomonas aeruginosa CCM 1961; experiment: Antibacterial microdilution broth, PA; assay type: cell-based; conditions: Pseudomonas aeruginosa, read-out: MIC PA
[8] = test system: Mycobacterium smegmatis CCM 4622 (ATCC 607); experiment: Antimycobacterial microdilution, M. smegmatis; assay type: cell-based; conditions: Mycolicibacterium smegmatis, read-out: M. smeg. ATCC 607 MIC
Trichosporon asahii 1188 = experiment: Antifungal microdilution broth, TA; assay type: cell-based; conditions: read-out: MIC TA
[9] = test system: Trichophyton interdigitale 445; experiment: Antifungal microdilution broth, TI; assay type: cell-based; conditions: read-out: MIC TI
[10] = test system: Escherichia coli CCM 4517; experiment: Antibacterial microdilution broth, EC; assay type: cell-based; conditions: Escherichia coli, read-out: MIC EC
[11] = test system: Mycobacterium tuberculosis H37Rv CNCTC My 331/88 (ATCC 27294); experiment: Antimycobacterial microdilution MABA, M. tuberculosis; assay type: cell-based; conditions: for Mtb H37Rv ATCC 27294 MIC: Middlebrook 7H9 with OADC growth supplement, pH = 6.6, MABA; for MIC: Mycobacterium tuberculosis, read-out: Mtb H37Rv ATCC 27294 MIC, Middlebrook 7H9 with OADC growth supplement, pH = 6.6, MABA
[12] = test system: Staphylococcus aureus CCM 4516/08; experiment: Antibacterial microdilution broth, SA; assay type: cell-based; conditions: Staphylococcus aureus
[13] = test system: Candida albicans ATCC 44859; experiment: Antifungal microdilution broth, CA; assay type: cell-based; conditions: Candida albicans, read-out: MIC CA
[14] = test system: Lichtheimia corymbifera 272; experiment: Antifungal microdilution broth, LC; assay type: cell-based; conditions: read-out: MIC LC
[15] = Aspergillus fumigatus, 231, 24 h
[16] = Aspergillus fumigatus, 231, 48 h
[17] = Trichosporon asahii, 1188, 24 h
[18] = Trichosporon asahii, 1188, 48 h
[19] = Trichophyton interdigitale, 445, 72 h
[20] = Trichophyton interdigitale, 445, 120 h
[21] = CCM4516, 24 h, read-out: MIC SA, 24 h
[22] = CCM4516, 48 h, read-out: MIC SA, 48 h
[23] = Lichtheimia corymbifera, 272, 24 h
[24] = Lichtheimia corymbifera, 272, 48 h

| Compound | MIC (Candida tropicalis 156; Candida tropicalis, 156, 24 h) | MIC (Candida tropicalis 156; Candida tropicalis, 156, 48 h) | MIC [1, 15] | MIC [1, 16] | MIC ([2]; SP.J14365/08, 24 h) | MIC ([2]; SP.J14365/08, 48 h) | MIC (Candida glabrata 20/I; 24 h) | MIC (Candida glabrata 20/I; 48 h) | MIC (Candida krusei E28; E28, 24 h) | MIC (Candida krusei E28; E28, 48 h) | MIC ([3]; H6966/08, 24 h) | MIC ([3]; H6966/08, 48 h) | MIC [4] | MIC ([5]; 24 h) | MIC ([5]; 48 h) | MIC [6] | MIC ([7]; CCM1961, 72 h) | MIC ([7]; CCM1961, 120 h) | MIC [8] | MIC (Trichosporon asahii 1188; [17]) | further results |
| --- | --- | --- | --- | --- | --- | --- | --- | --- | --- | --- | --- | --- | --- | --- | --- | --- | --- | --- | --- | --- | --- |
| Cc1ccc(C(=O)Nc2cnccn2)cc1 [Compound 1h] | > 500 µM | > 500 µM | > 500 µM | > 500 µM | > 500 µM | > 500 µM | > 500 µM | > 500 µM | > 500 µM | > 500 µM | 500 µM (≈ 107 µg/mL) | 500 µM (≈ 107 µg/mL) | > 100 µg/mL | > 500 µM | > 500 µM | > 100 µg/mL | 500 µM (≈ 107 µg/mL) | 500 µM (≈ 107 µg/mL) | ≥ 500 µg/mL | > 500 µM | MIC (Trichosporon asahii 1188; [18]): > 500 µM; MIC [9, 19]: > 500 µM; MIC [9, 20]: > 500 µM; MIC ([10]; CCM4517, 24 h): > 500 µM; MIC ([10]; CCM4517, 48 h): > 500 µM; Mtb H37Rv ATCC 27294 MIC [11]: >100 µg/mL; MIC [11]: > 100 µg/mL; MIC [12, 21]: > 500 µM; MIC [12, 22]: > 500 µM; MIC ([13]; ATCC44859, 24 h): 500 µM (≈ 107 µg/mL); MIC ([13]; ATCC44859, 48 h): 500 µM (≈ 107 µg/mL); MIC [14, 23]: > 500 µM; MIC [14, 24]: > 500 µM; melting point: 163.3 to 166 °C |
| O=C(Nc1cnccn1)c1ccccc1Cl [Compound 1j] | > 500 µM | > 500 µM | > 500 µM | > 500 µM | > 500 µM | > 500 µM | > 500 µM | > 500 µM | > 500 µM | > 500 µM | 500 µM (≈ 117 µg/mL) | 500 µM (≈ 117 µg/mL) | > 100 µg/mL | > 500 µM | > 500 µM | > 100 µg/mL | 250 µM (≈ 58.4 µg/mL) | 250 µM (≈ 58.4 µg/mL) | 250 µg/mL (≈ 1070 µM) | > 500 µM | M. kans. ATCC 12478 MIC ([4]; Middlebrook 7H9 with OADC, pH 6.6, MABA): >100 µg/mL; M. avium ATCC 15769 MIC [6]: >100 µg/mL; MIC (Trichosporon asahii 1188; [18]): > 500 µM; MIC [9, 19]: > 500 µM; MIC [9, 20]: > 500 µM; MIC ([10]; CCM4517, 24 h): > 500 µM; MIC ([10]; CCM4517, 48 h): > 500 µM; Mtb H37Rv ATCC 27294 MIC [11]: >100 µg/mL; MIC [11]: > 100 µg/mL; MIC [12, 21]: 250 µM (≈ 58.4 µg/mL); MIC [12, 22]: 250 µM (≈ 58.4 µg/mL); MIC ([13]; ATCC44859, 24 h): > 500 µM; MIC ([13]; ATCC44859, 48 h): > 500 µM; MIC [14, 23]: > 500 µM; MIC [14, 24]: > 500 µM; melting point: 128.2 to 129.7 °C |
| O=C(Nc1cnccn1)c1cccc(Cl)c1 [Compound 1k] | > 125 µM | > 125 µM | > 125 µM | > 125 µM | > 125 µM | > 125 µM | > 125 µM | > 125 µM | > 125 µM | > 125 µM | > 125 µM | > 125 µM | 50 µg/mL (≈ 214 µM) | > 125 µM | > 125 µM | > 100 µg/mL | > 125 µM | > 125 µM | ≥ 500 µg/mL | > 125 µM | M. avium ATCC 15769 MIC [6]: >100 µg/mL; MIC (Trichosporon asahii 1188; [18]): > 125 µM; MIC [9, 19]: > 125 µM; MIC [9, 20]: > 125 µM; MIC ([10]; CCM4517, 24 h): > 125 µM; MIC ([10]; CCM4517, 48 h): > 125 µM; MIC [11]: 50 µg/mL (≈ 214 µM); MIC [12, 21]: > 125 µM; MIC [12, 22]: > 125 µM; MIC ([13]; ATCC44859, 24 h): > 125 µM; MIC ([13]; ATCC44859, 48 h): > 125 µM; MIC [14, 23]: > 125 µM; MIC [14, 24]: > 125 µM; melting point: 147.2 to 149.4 °C |
